Earlier results, collected in patent US20120009644A1, “Tissue Implants for Implantation and Methods for Preparing the Same” (CRYOLIFE, INC., priority 2010, published 2012).

Test system: sensitive bacteria
Conditions: literature review

## NCC[C@H](O)C(=O)N[C@@H]1C[C@H](N)[C@@H](O[C@H]2O[C@H](CN)[C@@H](O)[C@H](O)[C@H]2O)[C@H](O)[C@H]1O[C@H]1O[C@H](CO)[C@@H](O)[C@H](N)[C@H]1O [amikacin]
  minimum inhibitory concentration against sensitive bacteria (MIC) range: 0.125 to 32 µg/mL
